Measurements: patent US10105339B2, “Ingenol derivatives in the reactivation of latent HIV” (priority 2012, dated 2018)

What was measured:
[1] = system: CD4 HIV-1 receptor; assay: Downregulation of CD4 receptor on human lymphocytes and monocytes/macrophages (flow cytometry); assay type: cell-based; conditions: summary statement for lymphocytes and monocytes/macrophages (human and monkey cells tested)
Excerpt: It is verified in this test that ingenol derivatives of formula 1, when Z=Z2, at concentrations that activate HIV from latency in Jlat cells in example 3, downregulate the expression of CD4 cell receptor on the surface of HIV-human and SIV-pig-tail monkey CD4+T lymphocytes and macrophages. For this experiment PBMC cells from human and monkeys were isolated from peripheral blood with isolation through Ficoll-Hypaque density gradient (mixture of high density hydrophilic neutral polysaccharides that readily dissolves in aqueous solution. “Ficoll” is a trademark of GE Healthcare Bio-Sciences, USA). Thus, PBMC cells from human and monkeys, at concentration of 10^6 cells/mL, were cultured in RPMI medium with 10% fetal bovine serum for 24 hours and adhered cells (monocytes differentiating into macrophages) were separated from the cell supernatant which contained total lymphocytes. Those two distinct populations of cells were exposed to different concentrations of A, B and C derivatives of the invention, and left in culture for 72 hours. After exposure, the cells were stained with specific lymphocyte monoclonals (anti-CD3) and monocytes/macrophages (anti-CD14) simultaneously with an anti-CD4. Thus, the cells were centrifuged at 1000 G for 3 minutes and washed with the same PBS volume (without Ca^2+ and Mg^2+, Cat. No. 9240, Irvine Scientific, USA) containing 2% fetal bovine serum. This wash was repeated 3 times and the cells were suspended in 1×PBS containing a 1/1000 dilution of relevant antibodies and left to incubate for 30 min at 4° C. until being read in flow cytometry. After incubation, 30,000 cells were read in a BD-Excalibur flow cytometer (from Beckton Dickinson and co., USA) and the populations were separated and the CD4 receptor density was estimated at different concentrations of the B derivative, assuming cell density without B derivative as 100%. […]

[2] = system: HIV-1 latent virus in PBMC cells of patient; assay: Activation of latent HIV in PBMC from patient under anti-retroviral treatment (semi-nested real time PCR of intracellular vRNA); assay type: cell-based; conditions: 72 hours
Description: It was tested, in this experiment, the ability of ingenol derivative, of formula I, wherein Z=Z2, mentioned as B, of activating latent cells from patients who were already under anti-retroviral treatment for more than 1 year with undetectable viral load. A patient (identified as MLV) was selected, which had already been under treatment with zidovudine+lamivudine (AZT+3TC) and efavirenz for over 14 months, with undetectable viral load and CD4>500 cells/mm^3. 20 mL of blood was collected from the patient in a EDTA (ethylene diamine tetra acetic acid) tube and PBMC cells were isolated, which were placed in RPMI culture medium with 10% fetal bovine serum and 50 IU/mL of IL2 (interleukin 2), and grown in 2 bottles with 5 mL of identical cells (106/mL) with different selective compositions. 10 μM efavirenz (antiviral) was added to the control bottle to block viral replication that would eventually arise from cultured cells. In another test bottle both efavirenz (10 μM) and the B derivative of the invention (1 μM) were included. […]

Row | SMILES | downregulation of the main HIV receptor (CD4) on the surface of infection targeted cells [1] | intracellular HIV-1 vRNA ([2]; 1 μM B derivative plus 10 μm efavirenz, FIG. 8) | intracellular HIV-1 vRNA ([2]; 10 μM efavirenz alone (control bottle), FIG. 7)
1 | CC1=CC23C(=O)C(C=C(CO)C(O)C2(O)C1OC(=O)/C=C/c1ccccc1)C1C(CC3C)C1(C)C (centres unmarked) [A, Ingenol 3-cinnamate] | able to downregulate |  | 
2 | CCCCCC(=O)OC1C(C)=CC23C(=O)C(C=C(CO)C(O)C12O)C1C(CC3C)C1(C)C (centres unmarked) [B, Ingenol 3-caproate] | able to downregulate | emergence of intracellular HIV-1 vRNA | 
3 | CCCCCCCCCCCC(=O)OC1C(C)=CC23C(=O)C(C=C(CO)C(O)C12O)C1C(CC3C)C1(C)C (centres unmarked) [C, ingenol 3-dodecanoate] | able to downregulate |  | 
4 | O=C1Nc2ccc(Cl)cc2[C@@](C#CC2CC2)(C(F)(F)F)O1 [efavirenz, reference compound] |  |  | did not produce intracellular vRNA
